Data on 36 molecules can be found in a melting point compilation (Tetko et al.; mined from patent text by program, amines drawn as free bases though some values may be those of a salt).

Each structure is given as a SMILES string.

The melting point is the temperature of the solid-liquid transition.

`CCOC(=O)C1=C(O)C(C)(CC)CNC1=O` (stereo unspecified) registered a melting point of 196 to 197 °C.

`Cc1nnccc1-c1c(-c2ccccc2)nn2ccccc12` gave a melting point of 209 to 214 °C.

Turning to `O=C(NC(Cc1ccccc1)c1ccc(O)cc1)C(c1ccccc1)c1ccccc1` (stereo unspecified), the melting point lay in the range of 67 to 69 °C.

On to `O=C(Nc1ccc2ccc(Cl)nc2n1)C1=CSCCS1`, for which the melting point came to 237 °C.

As to `COC(C)(C)C(=O)COc1ccc(Cl)cc1Cl`, the melting point lay within 45.5 to 47.5 °C.

Molecule `CN=C1C2=C(C=CC1CN(C)c1ccc(C(=O)OC)cc1)C(C)(C)CCC2(C)C` (stereo unspecified) yielded a melting point of 275 to 280 °C.

For `CN1CCCC1=Nc1ncnc2c1ncn2C1=CC(=O)CC1`, the melting point is 200 to 205 °C.

As for `N#CCCCNC(=O)c1n[nH]cc1NC(=O)c1ccccn1`, the melting point lay within 231 to 233 °C.

Regarding `COc1ccc2c(Nc3ccc(C)c(O)c3)c(C#N)cnc2c1`, the melting point was over 250 °C.

In turn, `COc1ccc2c3c(ccc2c1)CC(=O)C3` returned a melting point of 138 to 140 °C.

`Cc1cccc(C)c1NC(=O)N=C1CCCCCN1C` showed a melting point of 128 to 130 °C.

`O=C(NNc1ccccc1)c1ccc(F)cc1`: the melting point was 181 to 186 °C.

`O=C1N(c2cc(Cl)cc(Cl)c2)C(=O)C2(Cc3ccc(Br)cc3)CC(F)(F)CN12` (stereo unspecified): the melting point amounted to 160 °C.

In turn, `Nc1ccc(S(=O)(=O)c2cc(-c3ccsc3)nc(N3CCCC3)c2)cc1` came in with a melting point of 260 °C.

The molecule `N=C(Nc1ccc(Cl)cc1)Nc1ncccc1OCc1c(F)ccc(F)c1F` yielded a melting point of 153 to 156 °C.

Turning to `COc1cc2c(-c3ccnc(Cl)c3)c(CO)c(CO)cc2cc1OC1CCCC1`, the melting point lay within 200 to 201 °C.

As to `CN1CCN=C(c2ccccc2)c2cc(C#N)ccc21`, the melting point was 149 to 150 °C.

`Fc1ccc([C@H]2CC[C@H](N3CCN(Cc4ccccc4)CC3)CC2)cc1` showed a melting point of 106 °C.

`CC[C@@]1(C=O)CCCN(CCc2c[nH]c3ccc(F)cc23)C1=O` registered a melting point of 116 °C.

For the molecule `O=C(NC1CCC(c2cc(Nc3cccc(C(F)(F)F)c3)n[nH]2)C1)c1ccccn1` (stereo unspecified), the melting point is 162 °C.

The molecule `O=C(O)c1cn(-c2cccc(F)c2)c2c(F)c(F)c(F)cc2c1=O` returned a melting point of 89 to 91 °C.

Molecule `CC(C)(C)OC(=O)NCCCCNC(=O)COc1ccc(Cl)cc1Cl` had a melting point of 107 °C.

`Cc1nc(-n2cnn(Cc3c(C)noc3C)c2=O)sc1C(=O)NCc1cccnc1`: the melting point was in the range of 233 to 234 °C.

As to `CC(=O)OC[C@H]1NC(=O)[C@@H](Cc2cn(C)c3ccccc23)NC1=O`, the melting point lay within 250 to 252 °C.

The molecule `CCOC(=O)c1c(C(F)(F)F)nc2ccccc2c1O` returned a melting point of 192 °C.

The molecule `Cc1c(Cl)sn(-c2ccc(Cl)cc2)c1=O` displayed a melting point of 104 to 106 °C.

Consider `CCNC=C(C(=O)C=Cc1ccccc1)C(=O)OC`, for which the melting point fell in the range of 92 to 94 °C.

Take `COC(=O)[C@@H](C)OCC#Cc1cc(Cl)ccc1NS(=O)(=O)c1ccc2ncsc2c1`: the melting point came to 136 °C.

Regarding `CC(=O)[C@H]1C[C@@H](C(N)=S)N(C(=O)OCc2ccc([N+](=O)[O-])cc2)C1`, the melting point was 168 to 170 °C.

With `O=C(Nc1cccc(-c2ncno2)c1)Oc1ccc([N+](=O)[O-])cc1`, the melting point lay within 195 to 197 °C.

`CC1(c2ccccc2)C(=O)Nc2ccccc2C1=O` (stereo unspecified) displayed a melting point of 194 to 196 °C.

The molecule `O=C(O)c1ccc([N+](=O)[O-])c(S(=O)(=O)CCO)c1` had a melting point of 176 to 177 °C.

The molecule `[N-]=[N+]=C1c2cc(F)ccc2-c2ccc(F)cc21` had a melting point of 148 to 150 °C.

With `CC(c1oc2ccccc2c(=O)c1-c1ccc(F)cc1)n1cnc2c(N)ncnc21` (stereo unspecified), the melting point was in the range of 210 to 212 °C.

Molecule `Cc1cc(=O)[nH]c(NC(=N)Nc2ccccc2C)n1` registered a melting point of 260 °C.

Regarding `Cc1c(N2CC(O)C2)c(F)cc2c(=O)c(C(=O)O)cn(-c3cc(N)c(F)cc3F)c12`, the melting point lay within 206 to 208 °C.
